Reference: patent US6077680A (The University of Florida, dated 2000)

tested on: rat brain membrane K channels (primarily Kv1.2); experiment: not given; assay type: binding; conditions: not given

Molecule	Equipotent Molar Ratio (Analog IC50 /ShK IC50)	Free Energy Differ. of Binding ΔF	IC50 Ratio	binding affinity for rat brain K channels relative to wild-type ShK toxin, in words	ΔF	Difference of Free Energy of Binding	increase in relative free energy of binding	Equipotent Molar Ration (Analog IC50 /ShK IC50) Rat brain
CC[C@H](C)[C@@H]1NC(=O)[C@@H](NC(=O)[C@H](CO)NC(=O)[C@@H](N)CCCNC(=N)N)CSSC[C@@H](C(=O)O)NC(=O)[C@H]([C@@H](C)O)NC(=O)CNC(=O)[C@@H]2CSSC[C@@H]3NC(=O)[C@H](CCC(N)=O)NC(=O)[C@H](Cc4ccccc4)NC(=O)[C@H](C)NC(=O)[C@H]([C@@H](C)O)NC(=O)[C@H](CSSC[C@H](NC(=O)[C@H](Cc4ccccc4)NC(=O)[C@H](CO)NC(=O)[C@H](CC(C)C)NC(=O)[C@H](CCCNC(=N)N)NC(=O)[C@H](Cc4ccc(O)cc4)NC(=O)[C@H](CCCCN)NC(=O)[C@H](CCSC)NC(=O)[C@H](CO)NC(=O)[C@H](CCCCN)NC(=O)[C@H](CCCCN)NC3=O)C(=O)N[C@@H](CCCNC(=N)N)C(=O)N[C@@H](CCCCN)C(=O)N[C@@H]([C@@H](C)O)C(=O)N2)NC(=O)[C@H](CCCNC(=N)N)NC(=O)[C@H](CO)NC(=O)[C@H](CCCCN)NC(=O)[C@@H]2CCCN2C(=O)[C@H]([C@@H](C)CC)NC(=O)[C@H]([C@@H](C)O)NC(=O)[C@H](CC(=O)O)NC1=O [H19K]	2.6	0.56	2.6	slightly reduced IC50 ratio	0.56			
CC[C@H](C)[C@@H]1NC(=O)[C@@H](NC(=O)[C@H](CO)NC(=O)[C@@H](N)CCCNC(=N)N)CSSC[C@@H](C(=O)O)NC(=O)[C@H]([C@@H](C)O)NC(=O)CNC(=O)[C@@H]2CSSC[C@@H]3NC(=O)[C@H](CCC(N)=O)NC(=O)[C@H](Cc4ccccc4)NC(=O)[C@H](C)NC(=O)[C@H]([C@@H](C)O)NC(=O)[C@H](CSSC[C@H](NC(=O)[C@H](Cc4ccccc4)NC(=O)[C@H](CO)NC(=O)[C@H](CC(C)C)NC(=O)[C@H](CCCNC(=N)N)NC(=O)[C@H](Cc4ccc(O)cc4)NC(=O)[C@H](CCCCN)NC(=O)[C@H](CCSC)NC(=O)[C@H](CO)NC(=O)[C@H](Cc4c[nH]cn4)NC(=O)[C@H](CCCCN)NC3=O)C(=O)N[C@@H](CCCNC(=N)N)C(=O)N[C@@H](CCCCN)C(=O)N[C@@H]([C@@H](C)O)C(=O)N2)NC(=O)[C@H](CCCNC(=N)N)NC(=O)[C@H](CO)NC(=O)[C@H](CCCCN)NC(=O)[C@@H]2CCCN2C(=O)[C@H](C)NC(=O)[C@H]([C@@H](C)O)NC(=O)[C@H](CC(=O)O)NC1=O [I7A]			5.2			0.96	approximately 1 kcal/mol	
CC[C@H](C)[C@@H]1NC(=O)[C@@H](NC(=O)[C@H](CO)NC(=O)[C@@H](N)CCCNC(=N)N)CSSC[C@@H](C(=O)O)NC(=O)[C@H]([C@@H](C)O)NC(=O)CNC(=O)[C@@H]2CSSC[C@@H]3NC(=O)[C@H](CCC(N)=O)NC(=O)[C@H](Cc4ccccc4)NC(=O)[C@H](C)NC(=O)[C@H]([C@@H](C)O)NC(=O)[C@H](CSSC[C@H](NC(=O)[C@H](Cc4ccccc4)NC(=O)[C@H](CO)NC(=O)[C@H](CC(C)C)NC(=O)[C@H](CCCNC(=N)N)NC(=O)[C@H](Cc4ccc(O)cc4)NC(=O)[C@H](CCCCN)NC(=O)[C@H](CCSC)NC(=O)[C@H](CO)NC(=O)[C@H](Cc4c[nH]cn4)NC(=O)[C@H](CCCCN)NC3=O)C(=O)N[C@@H](CCCNC(=N)N)C(=O)N[C@@H](CCCCN)C(=O)N[C@@H]([C@@H](C)O)C(=O)N2)NC(=O)[C@H](CCCNC(=N)N)NC(=O)[C@H](CO)NC(=O)[C@H](C)NC(=O)[C@@H]2CCCN2C(=O)[C@H]([C@@H](C)CC)NC(=O)[C@H]([C@@H](C)O)NC(=O)[C@H](CC(=O)O)NC1=O [K9A]			1.3			0.15		
CC[C@H](C)[C@@H]1NC(=O)[C@@H](NC(=O)[C@H](CO)NC(=O)[C@@H](N)CCCNC(=N)N)CSSC[C@@H](C(=O)O)NC(=O)[C@H]([C@@H](C)O)NC(=O)CNC(=O)[C@@H]2CSSC[C@@H]3NC(=O)[C@H](CCC(N)=O)NC(=O)[C@H](Cc4ccccc4)NC(=O)[C@H](C)NC(=O)[C@H]([C@@H](C)O)NC(=O)[C@H](CSSC[C@H](NC(=O)[C@H](Cc4ccccc4)NC(=O)[C@H](CO)NC(=O)[C@H](CC(C)C)NC(=O)[C@H](CCCNC(=N)N)NC(=O)[C@H](Cc4ccc(O)cc4)NC(=O)[C@H](CCCCN)NC(=O)[C@H](CCSC)NC(=O)[C@H](CO)NC(=O)[C@H](Cc4c[nH]cn4)NC(=O)[C@H](CCCCN)NC3=O)C(=O)N[C@@H](CCCNC(=N)N)C(=O)N[C@@H](CCCCN)C(=O)N[C@@H]([C@@H](C)O)C(=O)N2)NC(=O)[C@H](CCCNC(=N)N)NC(=O)[C@H](CO)NC(=O)[C@H](CCC(N)=O)NC(=O)[C@@H]2CCCN2C(=O)[C@H]([C@@H](C)CC)NC(=O)[C@H]([C@@H](C)O)NC(=O)[C@H](CC(=O)O)NC1=O [K9Q]								0.6
CC[C@H](C)[C@@H]1NC(=O)[C@@H](NC(=O)[C@H](CO)NC(=O)[C@@H](N)CCCNC(=N)N)CSSC[C@@H](C(=O)O)NC(=O)[C@H]([C@@H](C)O)NC(=O)CNC(=O)[C@@H]2CSSC[C@@H]3NC(=O)[C@H](CCC(N)=O)NC(=O)[C@H](Cc4ccccc4)NC(=O)[C@H](C)NC(=O)[C@H]([C@@H](C)O)NC(=O)[C@H](CSSC[C@H](NC(=O)[C@H](Cc4ccccc4)NC(=O)[C@H](CO)NC(=O)[C@H](CC(C)C)NC(=O)[C@H](CCCNC(=N)N)NC(=O)[C@H](Cc4ccc(O)cc4)NC(=O)[C@H](CCC(=O)O)NC(=O)[C@H](CCSC)NC(=O)[C@H](CO)NC(=O)[C@H](Cc4c[nH]cn4)NC(=O)[C@H](CCCCN)NC3=O)C(=O)N[C@@H](CCCNC(=N)N)C(=O)N[C@@H](CCCCN)C(=O)N[C@@H]([C@@H](C)O)C(=O)N2)NC(=O)[C@H](CCCNC(=N)N)NC(=O)[C@H](CO)NC(=O)[C@H](CCCCN)NC(=O)[C@@H]2CCCN2C(=O)[C@H]([C@@H](C)CC)NC(=O)[C@H]([C@@H](C)O)NC(=O)[C@H](CC(=O)O)NC1=O [K22E]	726.0	3.86		greatly reduced affinity				
CC[C@H](C)[C@@H]1NC(=O)[C@@H](NC(=O)[C@H](CO)NC(=O)[C@@H](N)CCCNC(=N)N)CSSC[C@@H](C(=O)O)NC(=O)[C@H]([C@@H](C)O)NC(=O)CNC(=O)[C@@H]2CSSC[C@@H]3NC(=O)[C@H](CCC(N)=O)NC(=O)[C@H](Cc4ccccc4)NC(=O)[C@H](C)NC(=O)[C@H]([C@@H](C)O)NC(=O)[C@H](CSSC[C@H](NC(=O)[C@H](Cc4ccccc4)NC(=O)[C@H](CO)NC(=O)[C@H](C)NC(=O)[C@H](CCCNC(=N)N)NC(=O)[C@H](Cc4ccc(O)cc4)NC(=O)[C@H](CCCCN)NC(=O)[C@H](CCSC)NC(=O)[C@H](CO)NC(=O)[C@H](Cc4c[nH]cn4)NC(=O)[C@H](CCCCN)NC3=O)C(=O)N[C@@H](CCCNC(=N)N)C(=O)N[C@@H](CCCCN)C(=O)N[C@@H]([C@@H](C)O)C(=O)N2)NC(=O)[C@H](CCCNC(=N)N)NC(=O)[C@H](CO)NC(=O)[C@H](CCCCN)NC(=O)[C@@H]2CCCN2C(=O)[C@H]([C@@H](C)CC)NC(=O)[C@H]([C@@H](C)O)NC(=O)[C@H](CC(=O)O)NC1=O [L25A]			1.4			0.20		
RSCADTIPKSRCTAAQCKHSMKYRLSFCRKRCGTC [A4 + A15]	0.5	-0.41	0.5	more potent than the wild-type toxin	-0.41			
RSCIDSTIPKSRCTAAQKHSMKYRASFCRKTCGTC [A15 + A25]	2.1	0.43	2.1		0.43			
RSCIDTIPKSRCTAPQCKHSMKYRLSFCRATCGTC [K30A]			5.3			0.98	approximately 1 kcal/mol	
RSCIDTIPKSRCTAPQCKHSMKYRLSFCRKACGTC [T31A]			0.6	increased affinities		-0.30		
RSCIDTIPKSRCTAPQCKHSMKYRLSFCRKTCGAC [T34A]			1.0			0.0		

same assay, conditions: read-out: IC50 Rat Brain 125I-CTX

Molecule	IC50 [nM]
CC[C@H](C)[C@@H]1NC(=O)[C@@H](NC(=O)[C@H](CO)NC(=O)[C@@H](N)CCCNC(=N)N)CSSC[C@@H](C(=O)O)NC(=O)[C@H]([C@@H](C)O)NC(=O)CNC(=O)[C@@H]2CSSC[C@@H]3NC(=O)[C@H](CCC(N)=O)NC(=O)[C@H](Cc4ccccc4)NC(=O)[C@H](C)NC(=O)[C@H]([C@@H](C)O)NC(=O)[C@H](CSSC[C@H](NC(=O)[C@H](Cc4ccccc4)NC(=O)[C@H](CO)NC(=O)[C@H](CC(C)C)NC(=O)[C@H](CCCNC(=N)N)NC(=O)[C@H](Cc4ccc(O)cc4)NC(=O)[C@H](CCCCN)NC(=O)[C@H](CCSC)NC(=O)[C@H](CO)NC(=O)[C@H](Cc4c[nH]cn4)NC(=O)[C@H](CCCCN)NC3=O)C(=O)N[C@@H](CCCNC(=N)N)C(=O)N[C@@H](CCCCN)C(=O)N[C@@H]([C@@H](C)O)C(=O)N2)NC(=O)[C@H](CCCNC(=N)N)NC(=O)[C@H](CO)NC(=O)[C@H](CCC(N)=O)NC(=O)[C@@H]2CCCN2C(=O)[C@H]([C@@H](C)CC)NC(=O)[C@H]([C@@H](C)O)NC(=O)[C@H](CC(=O)O)NC1=O [K9Q]	11
CC[C@H](C)[C@@H]1NC(=O)[C@@H](NC(=O)[C@H](CO)NC(=O)[C@@H](N)CCCNC(=N)N)CSSC[C@@H](C(=O)O)NC(=O)[C@H]([C@@H](C)O)NC(=O)CNC(=O)[C@@H]2CSSC[C@@H]3NC(=O)[C@H](CCC(N)=O)NC(=O)[C@H](Cc4ccccc4)NC(=O)[C@H](C)NC(=O)[C@H]([C@@H](C)O)NC(=O)[C@H](CSSC[C@H](NC(=O)[C@H](Cc4ccccc4)NC(=O)[C@H](CO)NC(=O)[C@H](CC(C)C)NC(=O)[C@H](CCCNC(=N)N)NC(=O)[C@H](CO)NC(=O)[C@H](CCCCN)NC(=O)[C@H](CCSC)NC(=O)[C@H](CO)NC(=O)[C@H](Cc4c[nH]cn4)NC(=O)[C@H](CCCCN)NC3=O)C(=O)N[C@@H](CCCNC(=N)N)C(=O)N[C@@H](CCCCN)C(=O)N[C@@H]([C@@H](C)O)C(=O)N2)NC(=O)[C@H](CCCNC(=N)N)NC(=O)[C@H](CO)NC(=O)[C@H](CCCCN)NC(=O)[C@@H]2CCCN2C(=O)[C@H]([C@@H](C)CC)NC(=O)[C@H]([C@@H](C)O)NC(=O)[C@H](CC(=O)O)NC1=O [Y23S]	> 5000

biological target: Kv1.3 potassium channels in Jurkat T lymphocytes (Homo sapiens, UniProt P22001); experiment: not given; assay type: cell-based; conditions: not given
Sequence (P22001 whole entry): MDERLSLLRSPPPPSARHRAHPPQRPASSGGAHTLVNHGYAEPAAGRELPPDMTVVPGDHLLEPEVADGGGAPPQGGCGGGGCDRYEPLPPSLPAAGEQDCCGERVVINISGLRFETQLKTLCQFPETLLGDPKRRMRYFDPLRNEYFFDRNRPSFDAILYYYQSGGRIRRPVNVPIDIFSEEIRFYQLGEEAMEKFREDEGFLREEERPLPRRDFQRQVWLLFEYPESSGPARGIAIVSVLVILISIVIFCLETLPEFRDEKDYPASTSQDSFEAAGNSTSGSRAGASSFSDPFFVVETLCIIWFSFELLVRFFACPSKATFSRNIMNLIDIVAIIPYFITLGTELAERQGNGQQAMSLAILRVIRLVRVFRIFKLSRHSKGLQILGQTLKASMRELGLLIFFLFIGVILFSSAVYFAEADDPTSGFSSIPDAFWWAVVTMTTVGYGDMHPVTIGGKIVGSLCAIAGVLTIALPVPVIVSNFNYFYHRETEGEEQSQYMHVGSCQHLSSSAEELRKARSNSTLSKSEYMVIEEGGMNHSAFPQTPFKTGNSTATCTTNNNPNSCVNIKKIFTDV

Molecule	Equipotent Molar Ration (Analog IC50 /ShK IC50) Lymphocyte	reduction of affinity (IC50) for Kv1.3 relative to ShK toxin [fold]
CC[C@H](C)[C@@H]1NC(=O)[C@@H](NC(=O)[C@H](CO)NC(=O)[C@@H](N)CCCNC(=N)N)CSSC[C@@H](C(=O)O)NC(=O)[C@H]([C@@H](C)O)NC(=O)CNC(=O)[C@@H]2CSSC[C@@H]3NC(=O)[C@H](CCC(N)=O)NC(=O)[C@H](Cc4ccccc4)NC(=O)[C@H](C)NC(=O)[C@H]([C@@H](C)O)NC(=O)[C@H](CSSC[C@H](NC(=O)[C@H](Cc4ccccc4)NC(=O)[C@H](CO)NC(=O)[C@H](CC(C)C)NC(=O)[C@H](CCCNC(=N)N)NC(=O)[C@H](Cc4ccc(O)cc4)NC(=O)[C@H](CCCCN)NC(=O)[C@H](CCSC)NC(=O)[C@H](CO)NC(=O)[C@H](Cc4c[nH]cn4)NC(=O)[C@H](CCCCN)NC3=O)C(=O)N[C@@H](CCCNC(=N)N)C(=O)N[C@@H](CCCCN)C(=O)N[C@@H]([C@@H](C)O)C(=O)N2)NC(=O)[C@H](CCCNC(=N)N)NC(=O)[C@H](CO)NC(=O)[C@H](CCC(N)=O)NC(=O)[C@@H]2CCCN2C(=O)[C@H]([C@@H](C)CC)NC(=O)[C@H]([C@@H](C)O)NC(=O)[C@H](CC(=O)O)NC1=O [K9Q]	9.6	9.6

biological target: rat brain membrane K channels (delayed rectifier, primarily Kv1.2) (rat) (UniProt P63142); experiment: 125I-DTX displacement, rat brain membranes; conditions: not given

Molecule	IC50 ratio (analog IC50/ShK IC50)	free energy difference of binding [kcal/mol]
ShK I7A (peptide)	5.2	0.96
ShK K9A (peptide)	1.3	0.15
ShK P8A (peptide)	1.9	0.38
ShK R1A (peptide)	1.5	0.23
